Source: patent US20250019370A1, “L-LYSINE SALT OF 4-CHLORO-5-[4-(2,6-DICHLOROPHENYL)SULFONYLPIPERAZIN-1-YL]-1-BENZOFURAN-2-CARBOXYLIC ACID AND VARIOUS FORMS THEREOF” (ENYO PHARMA, priority 2023, published 2025)

What was measured:
[1] = Solubility kinetics in FeSSIF medium; format: physicochemical; conditions: listed as EYP001 L-Lysine salt (Amorphous form); for Soluble fraction: 37 ° C.; for pH: pH printed with the soluble fraction
[2] = Stability of freeze-dried amorphous material under ambient conditions; format: physicochemical
Experimental: The amorphous material was also prepared by freeze drying of EYP001 L-lysine salt (form I). EYP001 L-lysine salt (form I) was dissolved in CH3CN/H2O (62:38 v:v) at a concentration of 20 mg/mL. Then the solution was freeze-dried to form amorphous EYP001 L-lysine salt. This amorphous material was found stable over at least 19 days under ambient conditions.

[3] = Dynamic Vapor Sorption (DVS) analysis (gas water sorption); format: physicochemical
Experimental: The dynamic vapor sorption (DVS) analysis (gas water sorption) was performed on a DVS-Intrinsic incubator (SMS Ltd), equipped with DVS-Intrinsic Control Software 1.0. The sample, placed in an aluminium basket holder, was submitted to a full-cycle analysis (sorption followed by desorption cycle) under the following conditions:
The sample was first pre-dried under a stream of dry air until a stabilized sample mass was observed. Then, the relative humidity was increased by 5% increments. At each step, the sample mass was allowed to increase until equilibrium is reached (according to a given dm/dt target), and then a new relative humidity rise occurred. Relative humidity was ramped up to 95%. After equilibration at this point, desorption began in a similar stepwise manner, with sample mass decrease again allowed to stabilize after each incremental humidity decrease.
With both segments of the above-described method, the sample mass recording allowed describing of the whole vapor water sorption/desorption behaviour versus relative humidity.

[4] = Polymorph screening (solids analysed by XRPD); format: physicochemical; conditions: amorphous material as starting material
Experimental: A polymorph screening was performed on EYP001 L-lysine salt crystalline form I (form I as starting material unless otherwise specified).
A number of unique materials with different patterns were produced, including crystalline forms I-IV and an amorphous material. All solids from the screening experiments were analysed by XRPD analysis and the resulting patterns compared to that of the reference. The observed solids and their ways of obtention are described in Table 16.

[5] = Solubility kinetics in pH 4.5 acetate buffer; format: physicochemical; conditions: 37 ° C., listed as EYP001 L-Lysine salt (Amorphous form)
[6] = Thermogravimetric analysis (TGA), mass losses upon heating; format: physicochemical; conditions: listed as EYP001 L-lysine salt (amorphous form)
Experimental: Thermogravimetric analysis was performed on a TA Instruments TGA Hi-Res 2950 apparatus equipped with an evolved gas analysis furnace. A sample was placed in an opened aluminium basket and analysed according to the following conditions: […]

[7] = Pharmacokinetic study Experiment #4, oral administration in rats; format: in vivo, rat; conditions: 10 mg EqEYP001/Kg, male rats, listed as EYP001 L-lysine salt (Amorphous Form)
Experimental: In a fourth study (Experiment #4), EYP001, EYP001 L-lysine salt amorphous Form and EYP001 L-lysine salt Form VI in aqueous formulations (0.5% CMC, 0.25% Tween 80, water) were orally administrated at a dose of 10 mg EqEYP001/Kg in 8 male rats for each compound (4 rats on day 1 and 4 rats on day 2 for each compound). Blood samples were taken at 0.25 h, 0.5 h, 1 h, 2 h, 4 h, 6 h, 8 h, 12 h, and 24 h after oral administration.

[8] = Entry 4*: no solvent, 23% RH stress
[9] = Entry 5*: no solvent, 40° C./75% RH stress
[10] = Entry 6*: no solvent, 59% RH stress
[11] = Entry 11*: THF, flash evaporation

NCCCC[C@H](N)C(=O)O.O=C(O)c1cc2c(Cl)c(N3CCN(S(=O)(=O)c4c(Cl)cccc4Cl)CC3)ccc2o1 [EYP001 L-lysine salt amorphous form, L-lysine salt of 4-chloro-5-[4-(2,6-dichlorophenyl)sulfonylpiperazin-1-yl]-1-benzofuran-2-carboxylic acid]
Soluble fraction ([1]; after 0.5 h): 1.12 mg/mL of EYP001
Soluble fraction ([1]; after 1 h): 1.13 mg/mL of EYP001
Soluble fraction ([1]; after 2 h): 1.12 mg/mL of EYP001
Soluble fraction ([1]; after 24 h): 1.11 mg/mL of EYP001
pH ([1]; after 0.5 h): (pH = 4.9)
pH ([1]; after 1 h): (pH = 4.9)
pH ([1]; after 24 h): (pH = 5.0)
time found stable [2]: at least 19 days
stability at high relative humidity (DVS) ([3]; 25° C.): unstable at high relative humidity
mass loss during preliminary drying phase ([3]; 25° C./0% RH before sorption): 2.6%
water uptake upon sorption (DVS) ([3]; 25° C./40% RH): 3.5 % wt.
water uptake (DVS) ([3]; 25° C./60% RH, listed as EYP001 L-Lysine salt amorphous form): 6.8%
water uptake upon sorption (DVS) ([3]; 25° C./75% RH): 11.5 % wt.
water uptake upon sorption (DVS), after drastic decrease ([3]; 25° C./95% RH): 4 % wt.
maximum hysteresis sorption/desorption ([3]; 25° C., listed as EYP001 L-Lysine salt amorphous form): 10.3%
mass below the initial mass after desorption ([3]; back to 25° C./0% RH after full cycle): about 1.3 % wt.
hygroscopicity (DVS) ([3]; hygroscopic above 2% mass gain at 25° C./60% RH, listed as EYP001 L-Lysine salt amorphous form): hygroscopic
Results [4, 8]: solid
XRPD [4, 8]: Amorphous
Results [4, 9]: solid
XRPD [4, 9]: Form I
Results [4, 10]: solid
XRPD [4, 10]: Form I
Results ([4]; Entry 9*: no solvent, milling): solid
XRPD ([4]; Entry 9*: no solvent, milling): Amorphous
Results [4, 11]: solid
XRPD [4, 11]: Amorphous
Soluble fraction ([5]; after 0.5 h): 0.029 mg/mL of EYP001
Soluble fraction ([5]; after 1 h): 0.023 mg/mL of EYP001
onset temperature of thermal decomposition (TGA) ([6]; heater ramp 10 ° C./min, nitrogen): 241 °C
mass loss before the beginning of thermal decomposition (TGA) ([6]; upon heating): 2.4%
Mean AUClast ([7]; aqueous formulation): 4.7647 µg·h/mL
Mean Cmax ([7]; aqueous formulation): 2.13 µg/mL
% increase/EYP001 (AUClast) ([7]; versus EYP001 free acid): +41.1%
% increase/EYP001 (Cmax) ([7]; versus EYP001 free acid): +47.4%
